Source: US20250129054A1 (Terran Biosciences Inc., priority 2022, published 2025)
Where “and” joins values, the source holds several entries; their conditions need not be identical. Identical values can stand only once. Like-named read-outs stand apart in the source and are kept apart here.

Experiments:
[1] = Serial tail vein bleed PK study in SD rats: methylone measured in plasma after IV or oral methylone or oral methylone prodrugs; format: in vivo, Sprague Dawley rats; conditions: methylone in plasma, male SD rats; for half-life: read-out: T½ (converted)
Outline: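 Three male Sprague-Dawley rats received methylone at 1 mg/kg IV (saline) or 10 mg/kg PO, or prodrugs at 10 mg/kg PO in 10% DMSO/20% PEG400/70% water, doses as methylone equivalents. Methylone measured in serial plasma samples. Non-compartmental PK parameters derived from nominal doses.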

[2] = cited from earlier work
[3] = male, Sprague-Dawley, rat, plasma, iv, 1 mg/kg, methylone 1 mg/kg IV, individual animals
[4] = male, Sprague-Dawley, rat, plasma, iv, 1 mg/kg, methylone 1 mg/kg IV, mean
[5] = male, Sprague-Dawley, rat, plasma, po, 10 mg/kg, methylone 10 mg/kg oral, individual animals
[6] = male, Sprague-Dawley, rat, plasma, po, 10 mg/kg, methylone 10 mg/kg oral, mean
[7] = methylone 1 mg/kg IV, individual animals
[8] = methylone 10 mg/kg oral, individual animals

For `CNC(C)C(=O)c1ccc2c(c1)OCO2` (racemic) [Methylone, 3,4-methylenedioxy-N-methylcathinone, reference compound], the AUC(0-t) [1, 3] was 163 ng·h/mL, the AUC(0-inf) ([1]; male, Sprague-Dawley, rat, plasma, iv, 1 mg/kg, methylone 1 mg/kg IV, individual animals, read-out: AUC0-inf) was 168 ng·h/mL and the Cmax ([1]; male, Sprague-Dawley, rat, plasma, iv, 1 mg/kg, methylone 1 mg/kg IV, individual animals, read-out: Cmax) was 192 ng/mL. It also gave a Tmax ([1]; male, Sprague-Dawley, rat, plasma, iv, 1 mg/kg, methylone 1 mg/kg IV, individual animals, read-out: Tmax) of 15 min, a half-life [1, 3] of 24.6 min and an AUC(0-t) [1, 4] of 142 ng·h/mL. The AUC(0-inf) ([1]; male, Sprague-Dawley, rat, plasma, iv, 1 mg/kg, methylone 1 mg/kg IV, mean, read-out: AUC0-inf) was 145 ng·h/mL, the Cmax ([1]; male, Sprague-Dawley, rat, plasma, iv, 1 mg/kg, methylone 1 mg/kg IV, mean, read-out: Cmax) was 172 ng/mL and the Tmax ([1]; male, Sprague-Dawley, rat, plasma, iv, 1 mg/kg, methylone 1 mg/kg IV, mean, read-out: Tmax) was 15 min. It also gave a half-life [1, 4] of 23.7 min, an AUC(0-t) [1, 5] of 636 ng·h/mL and an AUC(0-inf) ([1]; male, Sprague-Dawley, rat, plasma, po, 10 mg/kg, methylone 10 mg/kg oral, individual animals, read-out: AUC0-inf) of 729 ng·h/mL. It also gave a half-life [1, 5] of 135 min, an AUC(0-t) [1, 6] of 681 ng·h/mL and an AUC(0-inf) ([1]; male, Sprague-Dawley, rat, plasma, po, 10 mg/kg, methylone 10 mg/kg oral, mean, read-out: AUC0-inf) of 890 ng·h/mL. The Cmax ([1]; male, Sprague-Dawley, rat, plasma, po, 10 mg/kg, methylone 10 mg/kg oral, mean, read-out: Cmax) was 170 ng/mL, the Tmax ([1]; male, Sprague-Dawley, rat, plasma, po, 10 mg/kg, methylone 10 mg/kg oral, mean, read-out: Tmax) was 70.2 min and the half-life [1, 6] was 148 min. For the same compound, the AUC0-last [1, 7] was 134 ng·h/mL and 128 ng·h/mL, the AUC(0-inf) [1, 7] was 136 ng·h/mL and 131 ng·h/mL and the Cmax [1, 7] was 165 ng/mL and 159 ng/mL. For the same compound, the Tlast [1, 7] was 2.0 h, the T½ [1, 7] was 22.8 min and 24 min and the Tlast ([1]; methylone 1 mg/kg IV, mean) was 2.0 h. For the same compound, the AUC0-last [1, 8] was 520 ng·h/mL and 888 ng·h/mL, the AUC(0-inf) [1, 8] was 1050 ng·h/mL and the Cmax [1, 8] was 130 ng/mL and 119 ng/mL and 260 ng/mL. For the same compound, the Tlast [1, 8] was 7.00 h, the Tmax [1, 8] was 60 min and 120 min and 30 min and the T½ [1, 8] was 160 min. For the same compound, the Tlast ([1]; methylone 10 mg/kg oral, mean) was 7.00 h, the “reported time to achieve peak effects” value ([2]; after oral dosing, Poyatos et al., 2021) was 1 to 2 h and the “Oral Methylone Dose for Drug Activity Level Very Strong” value ([2]; human, oral, modified from WHO 2014) was no less than 270 mg. For the same compound, the “prolongation of duration of effects by re-dose” value ([2]; re-dose of one-third to one-half the initial dose, WHO 2014) was “approximately one”.
